Experimental data as given in PubChem BioAssay (NCI).
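Five concentrations, 48 hours, 96-well plates. TGI: concentration producing complete growth inhibition.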

Legend:
Assay in all cases: inhibition of tumour cell growth, NCI panel, 48 h
[1] = tested on: NCI-H522 lung
[2] = tested on: SNB-19 CNS
[3] = tested on: XF 498 CNS
[4] = tested on: ACHN renal
[5] = tested on: M14 melanoma
[6] = tested on: SNB-78 CNS
[7] = tested on: SW-620 colon
[8] = tested on: MOLT-4 leukemia
[9] = tested on: EKVX NSCLC
[10] = tested on: UO-31 renal
[11] = tested on: LXFL 529 NSCLC
[12] = tested on: MALME-3M melanoma
[13] = tested on: NCI-H23 lung
[14] = tested on: M19-MEL melanoma
[15] = tested on: LOX IMVI melanoma
[16] = tested on: SK-MEL-2 melanoma
[17] = tested on: HCT-15 colon
[18] = tested on: SF-539 CNS
[19] = tested on: CAKI-1 renal
[20] = tested on: KM20L2 colon
[21] = tested on: HOP-92 NSCLC
[22] = tested on: OVCAR-8 ovarian
[23] = tested on: A498 renal
[24] = tested on: TK-10 renal
[25] = tested on: SK-MEL-28 melanoma
[26] = tested on: SN12C renal
[27] = tested on: CCRF-CEM leukemia
[28] = tested on: SK-OV-3 ovarian
[29] = tested on: DLD-1 colon
[30] = tested on: UACC-62 melanoma
[31] = tested on: COLO 205 colon
[32] = tested on: HT29 colon
[33] = tested on: RPMI-8226 leukemia
[34] = tested on: K-562 leukemia
[35] = tested on: SNB-75 CNS
[36] = tested on: NCI-H226 lung
[37] = tested on: HOP-18 NSCLC
[38] = tested on: RXF-631 renal
[39] = tested on: SK-MEL-5 melanoma
[40] = tested on: SF-268 CNS
[41] = tested on: U251 CNS
[42] = tested on: HL-60(TB) leukemia
[43] = tested on: NCI-H460 lung
[44] = tested on: IGROV1 ovarian
[45] = tested on: DMS 114 small cell lung
[46] = tested on: SF-295 CNS
[47] = tested on: OVCAR-3 ovarian
[48] = tested on: KM12 colon
[49] = tested on: 786-0 renal
[50] = tested on: HCT-116 colon
[51] = tested on: SR leukemia
[52] = tested on: HCC-2998 colon
[53] = tested on: OVCAR-5 ovarian
[54] = tested on: UACC-257 melanoma
[55] = tested on: RXF 393 renal
[56] = tested on: A549 NSCLC
[57] = tested on: OVCAR-4 ovarian
[58] = tested on: HOP-62 NSCLC

## CC1=NC(C(=O)O)Cc2c1[nH]c1ccccc21 (stereo not drawn)
[1]
  TGI: > 100 µM
[2]
  TGI: > 100 µM
[3]
  TGI: > 100 µM
[4]
  TGI: > 100 µM
[5]
  TGI: > 100 µM
[6]
  TGI: > 100 µM
[7]
  TGI: > 100 µM
[8]
  TGI: > 100 µM
[9]
  TGI: > 100 µM
[10]
  TGI: > 100 µM
[11]
  TGI: > 100 µM
[12]
  TGI: > 100 µM
[13]
  TGI: > 100 µM
[14]
  TGI: > 100 µM
[15]
  TGI: > 100 µM
[16]
  TGI: > 100 µM
[17]
  TGI: > 100 µM
[18]
  TGI: > 100 µM
[19]
  TGI: > 100 µM
[20]
  TGI: > 100 µM
[21]
  TGI: > 100 µM
[22]
  TGI: > 100 µM
[23]
  TGI: > 100 µM
[24]
  TGI: > 100 µM
[25]
  TGI: > 100 µM
[26]
  TGI: > 100 µM
[27]
  TGI: > 100 µM
[28]
  TGI: > 100 µM
[29]
  TGI: > 100 µM
[30]
  TGI: > 100 µM
[31]
  TGI: > 100 µM
[32]
  TGI: > 100 µM
[33]
  TGI: > 100 µM
[34]
  TGI: > 100 µM
[35]
  TGI: > 100 µM
[36]
  TGI: > 100 µM
[37]
  TGI: > 100 µM
[38]
  TGI: > 100 µM
[39]
  TGI: > 100 µM
[40]
  TGI: > 100 µM
[41]
  TGI: > 100 µM
[42]
  TGI: > 100 µM
[43]
  TGI: > 100 µM
[44]
  TGI: > 100 µM
[45]
  TGI: > 100 µM
[46]
  TGI: > 100 µM
[47]
  TGI: > 100 µM

## CC1=C(C(=O)CC(=O)C(=O)Nc2cccc(Cl)c2C)Sc2ccccc2N1
[1]
  TGI: > 100 µM
[2]
  TGI: > 100 µM
[3]
  TGI: > 100 µM
[4]
  TGI: > 100 µM
[5]
  TGI: > 100 µM
[6]
  TGI: > 100 µM
[7]
  TGI: > 100 µM
[8]
  TGI: > 100 µM
[48]
  TGI: > 100 µM
[9]
  TGI: > 100 µM
[10]
  TGI: > 100 µM
[11]
  TGI: > 100 µM
[12]
  TGI: > 100 µM
[13]
  TGI: > 100 µM
[14]
  TGI: > 100 µM
[15]
  TGI: > 100 µM
[16]
  TGI: > 100 µM
[17]
  TGI: > 100 µM
[18]
  TGI: > 100 µM
[19]
  TGI: > 100 µM
[21]
  TGI: > 100 µM
[22]
  TGI: > 100 µM
[24]
  TGI: > 100 µM
[49]
  TGI: > 100 µM
[25]
  TGI: > 100 µM
[26]
  TGI: > 100 µM
[27]
  TGI: > 100 µM
[50]
  TGI: > 100 µM
[28]
  TGI: > 100 µM
[29]
  TGI: > 100 µM
[30]
  TGI: > 100 µM
[51]
  TGI: > 100 µM
[52]
  TGI: > 100 µM
[32]
  TGI: > 100 µM
[33]
  TGI: > 100 µM
[53]
  TGI: > 100 µM
[34]
  TGI: > 100 µM
[54]
  TGI: > 100 µM
[36]
  TGI: > 100 µM
[37]
  TGI: > 100 µM
[38]
  TGI: > 100 µM
[39]
  TGI: > 100 µM
[40]
  TGI: > 100 µM
[55]
  TGI: > 100 µM
[56]
  TGI: > 100 µM
[41]
  TGI: > 100 µM
[57]
  TGI: > 100 µM
[58]
  TGI: > 100 µM
[42]
  TGI: > 100 µM
[43]
  TGI: > 100 µM
[44]
  TGI: > 100 µM
[45]
  TGI: > 100 µM
[46]
  TGI: > 100 µM
[47]
  TGI: > 100 µM

## Cc1ncc(CCl)c2c1OC(C)(C)OC2
[1]
  TGI: 32.6 µM
[2]
  TGI: > 100 µM
[3]
  TGI: > 100 µM
[4]
  TGI: 45.4 µM
[5]
  TGI: > 100 µM
[6]
  TGI: > 100 µM
[7]
  TGI: 34 µM
[8]
  TGI: > 100 µM
[48]
  TGI: > 100 µM
[9]
  TGI: 41.4 µM
[10]
  TGI: > 100 µM
[11]
  TGI: > 100 µM
[12]
  TGI: 37 µM
[13]
  TGI: > 100 µM
[14]
  TGI: > 100 µM
[15]
  TGI: 33.5 µM
[16]
  TGI: > 100 µM
[18]
  TGI: > 100 µM
[20]
  TGI: > 100 µM
[21]
  TGI: 73.1 µM
[22]
  TGI: > 100 µM
[23]
  TGI: > 100 µM
[24]
  TGI: > 100 µM
[49]
  TGI: 41.2 µM
[25]
  TGI: 56.6 µM
[26]
  TGI: > 100 µM
[27]
  TGI: > 100 µM
[50]
  TGI: 65.8 µM
[28]
  TGI: > 100 µM
[29]
  TGI: > 100 µM
[30]
  TGI: > 100 µM
[52]
  TGI: > 100 µM
[32]
  TGI: > 100 µM
[33]
  TGI: > 100 µM
[53]
  TGI: 40.3 µM
[34]
  TGI: > 100 µM
[54]
  TGI: > 100 µM
[36]
  TGI: > 100 µM
[37]
  TGI: 36 µM
[38]
  TGI: 73.9 µM
[40]
  TGI: 53.6 µM
[55]
  TGI: 29.5 µM
[56]
  TGI: > 100 µM
[41]
  TGI: 27.5 µM
[57]
  TGI: 28.4 µM
[58]
  TGI: > 100 µM
[42]
  TGI: 65.2 µM
[43]
  TGI: > 100 µM
[44]
  TGI: > 100 µM
[45]
  TGI: > 100 µM
[46]
  TGI: > 100 µM
[47]
  TGI: 69.7 µM
